Data: US20070141109A1, “Local Deliver of 17-Beta Estradiol for Preventing Vascular Intimal Hyperplasia and for Improving Vascular Endothelium Function after Vascular Injury” (priority 1999, published 2007)
“Also recorded” adds a separate entry of the source.

Legend:
[1] = rats, estimated; cited from earlier work
[2] = tested on: coronary arteries subjected to PTCA; assay: Response to intracoronary acetylcholine by quantitative coronary angiography after PTCA; assay type: in vivo, pigs
Procedure: The study protocol was approved by the Animal Care and Ethical Research Committee of the Montreal Heart Institute. Juvenile farm pigs weighing 20-25 kg (1 female, and 8 castrated males) were used. On the day of the experiment, animals received 650 mg of acetylsalicylic acid and 30 mg of nifedipine orally, were premedicated with 6 mg/kg of tiletamine hydrochloride and zolazepam hydrochloride, and were given 0.05 mg of atropine intramuscularly. Under general anesthesia (a mixture of 1-1.5% isoflurane and oxygen enriched air), the right femoral artery was cannulated percutaneously. An 8 Fr arterial sheath was introduced, and […] of lidocaine and 250 U/kg of heparin were administered intra-arterially. Additional heparin was administered during PTCA if needed, to maintain an activated coagulation time of >300 seconds.
An 8 Fr right Amplatz guiding catheter and right Judkins guiding catheter were used for cannulation of the left and right coronary arteries, respectively. A standard balloon catheter (corresponding to a balloon/artery ratio of 1.1-1.3:1) was advanced over a 0.014″ floppy guide wire, and 3 successive 30-second inflations at 10 atm pressure were made with a 30 second interval between each inflation. PTCA was performed on all 3 coronary […] of each animal. For local delivery, the InfusaSleeve catheter (LocalMed Inc.) was used, which permits safe drug delivery with negligible additional injury (7). After balloon dilatation, each coronary artery of an animal was randomized to receive either 600:g of 17-beta estradiol (in 5 ml), vehicle alone (5 ml), or PTCA only. The vehicle 2-hydroxypropyl-beta-cyclodextrin (HPCD), and 17-beta estradiol were obtained from Sigma Chem. Co. For local delivery with the InfusaSleeve catheter, a proximal driving pressure of 10 atm and support balloon pressure of 6 atm were utilized.
All 9 animals underwent cardiac catheterization at the end of 4 weeks. After a baseline coronary angiogram, selective cannulation of the proximal portion of a coronary artery was performed with a single lumen balloon catheter (TotalCross, Schneider) for the administration of vasoactive agents. Acetylcholine (Ach) in increasing concentrations of 10^−7 M, 10^−6 M, 10^−5 M, 10^−4 M, was successively infused through the lumen port of the catheter. Each dose was administered for a duration of 3 minutes at a constant rate of 1 ml/min using an infusion pump. Coronary angiography was performed at the end of each dose. After infusion of the highest concentration of Ach (10^−4 M and angiography, 100:g of nitroglycerin was administered via the lumen port of the catheter, and a coronary angiogram performed. The same protocol was repeated for the other 2 coronary arteries. Heart rate, blood pressure, and ECG were monitored continuously throughout the experiment.
Coronary angiography was performed with a single plane imaging system (Electromed Intl). […] Care was taken to maintain the same angulation during angiography of a segment throughout the procedure. Ionic contrast (MD-76, Mallinckrodt Medical Inc) was used throughout the experiment. Images were captured at a frame speed of 30 frames/sec, and stored digitally. A segment of contrast-filled guiding catheter was included in every frame, for the purpose of calibration. Calibration was performed using the known diameter of the contrast-filled guiding catheter as the reference segment, to avoid error due to magnification. […]

[3] = tested on: coronary arteries subjected to PTCA; assay: Morphometric analysis of neointima hyperplasia after PTCA and local delivery; assay type: in vivo, pigs
Procedure: Eighteen juvenile farm pigs (9 female, and 9 castrated male) weighing 20-25 kg were studied. The study was approved by, and conducted in accordance with, the guidelines of the Animal Care and Ethical Research Committee of the Montreal Heart Institute. Before the procedure, animals were given 650 mg of acetylsalicylic acid and 30 mg of nifedipine orally, premedicated with intramuscular injection of 6 mg/kg of a mixture of tiletamine hydrochloride and zolazepam hydrochloride, and given 0.05 mg of atropine. The invasive procedure was performed under general anesthesia with a mixture of isoflurane (1 to 1.5%) and oxygen enriched air. The right femoral artery was cannulated percutaneously, and an 8 Fr arterial sheath was introduced. After arterial access had been obtained, 100 mg of lidocaine and 250 U/kg of heparin were administered intra-arterially via the sheath. Activated coagulation time was maintained at >300 seconds throughout the procedure. […] Standard PTCA equipment was used. An 8 Fr right Amplatz guiding catheter and right Judkins guiding catheter were used for cannulation of the left and right coronary arteries, respectively. PTCA was performed with a balloon size chosen to correspond to a balloon/artery ratio of 1.1-1.3. Three 30-second inflations at 10 atm pressure were performed with a 30-second interval between each inflation. Inflations were performed adjacent to major side branches to facilitate identification during harvesting, taking precaution not to include any side branch in the intended PTCA site. The left anterior descending, left circumflex, and right coronary arteries of each animal were subjected to PTCA. After PTCA, each coronary artery of an animal was randomized to receive either 600 μg of 17-beta estradiol locally, or vehicle alone locally, or PTCA only. The chemicals 17-beta estradiol and its vehicle 2-hydroxypropyl-beta-cyclodextrin (HPCD) were purchased from Sigma Chemical Co. The InfusaSleeve catheter (Local Med, Inc.) was used for local delivery.^12 Five ml of the designated substance was delivered at a driving pressure of 10 atm and support balloon pressure of 6 atm. Of the 18 animals, 2 died a few days after PTCA, and were excluded; thus, 16 animals were analyzed. Twelve animals were euthanized at 28 days, and 4 at 7 days. After premedication and anesthesia, the right internal jugular vein and common carotid artery were cannulated. Following cross-clamping of the descending thoracic aorta exposed via a left lateral thoracotomy, exsanguination was performed, with simultaneous administration of 1 l of 0.9% NaCl solution. The heart was perfusion-fixed in vivo with 2 l of 10% buffered formalin at 200 mm Hg pressure, removed from the animal, and placed in 10% buffered formalin solution. Coronary arteries were then dissected free from surrounding tissues. The site of PTCA was identified in relation to adjacent side branches, which served as landmarks. The injured segment was harvested with a 1 cm normal segment proximal and distal to the injured site. Serial sections 3 to 5 mm long were made from the harvested segment, with a minimum of at least 3 sections (maximum 5) from each PTCA site. Sections were stored in buffered 10% formalin and subjected to dehydration with increasing concentrations of alcohol, followed by treatment with xylene and paraffin. Each section was then cut to slices of 6 μm thickness with a microtome (Olympus cut 4060 E), and stained with Verhoeff's stain for morphometric analysis. Measurements were made with a video microscope (Leitz Diaplan, equipped with a Sony DXC 970 MD color video camera) linked to a 486 personal computer and customized software. A minimum of 3 sections for each injured segment were analyzed and results averaged. Analyses were made by a single observer unaware of the treatment group to which each segment had bee allocated. Randomly selected sections were viewed by a second observer (also blinded to protocol) independently; inter-observer variability was <5%. […]

[4] = tested on: endothelium of injured coronary arteries; assay: Reendothelialization by lectin Dolichos biflorus agglutinin immunohistochemistry; assay type: in vivo, pigs
Procedure: (§1) The animals were euthanized at 4 weeks. Under general anesthesia as described above, exsanguination was performed with replacement by 1 l of 0.9% NaCl solution. The heart was perfusion-fixed in vivo with 2 l of 10% buffered formalin at 200 mm Hg pressure. The heart was then removed, and the coronary arteries were harvested immediately. From the injured segment (identified in relation to side branches), serial sections of 3-5 mm were made, and stored in 10% buffered formalin solution. The sections were then treated with incremental concentrations of alcohol followed by treatment with xylene and paraffin. Slices of 6:m thickness were prepared, and stained with Verhoeff's stain for assessment of tissue response to injury. […] The % of reendothelialization and, the % of endothelial nitric oxide synthase (eNOS) expression were calculated as follows: (the total length of the luminal surface staining positively/the perimeter of the lumen)×100, respectively. Analysis was performed by an independent examiner with no knowledge of the treatment groups to which the sections belonged. […]

[5] = tested on: human umbilical vein endothelial cells; settings: HUVEC exposed to tumor necrosis factor; cited from earlier work
[6] = tested on: endothelial nitric oxide synthase (eNOS); assay: eNOS expression by immunohistochemistry; assay type: in vivo, pigs
Procedure: as §1

[7] = tested on: proliferating SMC (PCNA-positive); assay: PCNA immunohistochemistry of the proliferative response to injury; assay type: in vivo, pigs; settings: 7 days after PTCA
Procedure: Following slicing with a microtome and blocking of non-specific antibodies, the sections were treated with mouse anti-proliferating cell nuclear antigen (PCNA) antibodies and diluted biotinylated goat anti-mouse antibodies. They were then incubated with avidin-biotin (Elite ABC Kit, Vector Laboratories), and developed with 3,3′-diaminobenzidine (Vector Laboratories). They were finally counter-stained with hematoxylin. Porcine liver cells were used as a positive control. For each section, a 6 μm slice counter-stained with hematoxylin without treatment with the primary antibody (mouse anti-PCNA) served as a negative control. The proliferative response to injury was studied by immunohistochemical analysis of samples from animals euthanized at 7 days. The % proliferating SMC was obtained by dividing the number of PCNA-positive SMC by the total number of SMC in each field; separate measurements were made for neointima and media layers. The proliferating cells were identified as SMC by positive staining of parallel sections with a smooth muscle actin antibody. To standardize comparison among treatment groups, measurements were obtained at 4 fixed locations separated by 90° sites for each section, and the results averaged.

[8] = 600 μg locally after PTCA, 28 days, mean ± SD

CC(O)COC[C@H]1O[C@@H]2O[C@H]3[C@H](O)[C@@H](O)[C@@H](O[C@H]4[C@H](O)[C@@H](O)[C@@H](O[C@H]5[C@H](O)[C@@H](O)[C@@H](O[C@H]6[C@H](O)[C@@H](O)[C@@H](O[C@H]7[C@H](O)[C@@H](O)[C@@H](O[C@H]8[C@H](O)[C@@H](O)[C@@H](O[C@H]1[C@H](O)[C@H]2O)O[C@@H]8COCC(C)O)O[C@@H]7COCC(C)O)O[C@@H]6COCC(C)O)O[C@@H]5COCC(C)O)O[C@@H]4COCC(C)O)O[C@@H]3COCC(C)O (stereo partly drawn) [HPCD, 2-hydroxypropyl-beta-cyclodextrin]
toxic dose (nephrotoxicity) [1]: 200 mg/kg

C[C@]12CC[C@@H]3c4ccc(O)cc4CC[C@H]3[C@@H]1CC[C@@H]2O [17-beta estradiol]
Diameter-basal (basal coronary artery diameter) ([2]; 4 weeks after PTCA and 600 μg locally): 2.53±0.6 mm | Diameter-post Ach ([2]; Ach 10^−4M, 4 weeks): 2.28±0.61 mm | coronary artery diameter after nitroglycerin ([2]; after 10^−4 M Ach then nitroglycerin, 4 weeks): 2.61±0.48 mm | vasoconstrictive response to Ach ([2]; any Ach concentration used, in words): no significant vasoconstrictive response | changes in heart rate, ECG, or blood pressure ([2]; during the local delivery or intracoronary infusion of vasoactive agents): No changes | % neointima [3, 8]: 12.16 ± 8.89% | % stenosis [3, 8]: 15.67 ± 11.13% | EELref/EELinj (vascular remodeling) [3, 8]: 1.01±0.16 | Neointima area [3, 8]: 0.4 ± 0.3 mm^2 | Neointima/Media area [3, 8]: 0.59 ± 0.48 | Restenotic index [3, 8]: 1.3 ± 0.5 | decrease of neointima formation ([3]; compared to PTCA only, 28 days): 54.6% | decrease of neointima formation ([3]; compared to vehicle alone, 28 days): 64.9% | performance of lower doses ([3]; doses of 200 and 400 μg, local): as performing as the dose of 600 μg | % neointima ([3]; female pigs): 8.29 ± 3.72% | % stenosis ([3]; female pigs): 11.09 ± 5.16% | Neointima area ([3]; female pigs): 0.25 ± 0.15 mm^2 | Neointima/Media area ([3]; female pigs): 0.32 ± 0.16 | Restenotic index ([3]; female pigs, 5 segments): 1.37 ± 0.45 | neointima hyperplasia compared to PTCA only or vehicle alone ([3]; local delivery, 28 days, in words): markedly less neointima hyperplasia; also recorded: significantly less neointima hyperplasia | % neointima ([3]; male pigs): 14.93 ± 10.68% | % stenosis ([3]; male pigs): 18.93 ± 13.39% | Neointima area ([3]; male pigs): 0.51 ± 0.34 mm^2 | Neointima/Media area ([3]; male pigs): 0.78 ± 0.55 | Restenotic index ([3]; male pigs, 7 segments): 1.2 ± 0.59 | Reendothelialization ([4]; 4 weeks after PTCA): 90.6±5.5% | reendothelialization compared to PTCA only and vehicle ([4]; FIG. 4, in words): reendothelialization to a greater degree | decrease in apoptosis [5]: 50% | Endothelial nitric oxide synthase expression ([6]; 4 weeks after PTCA): 35.6±11.8% | expression of eNOS compared to PTCA only and vehicle ([6]; FIG. 5, in words): greater expression of eNOS | % PCNA-positive SMC in the media [7]: 0.4±0.3% | % of PCNA-positive SMC in the neointima [7]: 0.43±0.52%
